# According to patent publication US11203571B2, “Sulfonamides as modulators of sodium channels” (VERTEX PHARMACEUTICALS INCORPORATED, priority 2013, dated 2021):
# What was measured:
# human Nav1.8 = human Nav1.8 (Homo sapiens (Human), UniProt Q9Y5Y9); assay: E-VIPR optical membrane potential assay with electrical stimulation; format: cell-based; details: HEK cells expressing human Nav1.8
# Text: E-VIPR Optical Membrane Potential Assay Method with Electrical Stimulation
# Sodium channels are voltage-dependent proteins that can be activated by inducing membrane voltage changes by applying electric fields. The electrical stimulation instrument and methods of use are described in Ion Channel Assay Methods PCT/US01/21652, herein incorporated by reference and are referred to as E-VIPR. The instrument comprises a microtiter plate handler, an optical system for exciting the coumarin dye while simultaneously recording the coumarin and oxonol emissions, a waveform generator, a current- or voltage-controlled amplifier, and a device for inserting electrodes in well. Under integrated computer control, this instrument passes user-programmed electrical stimulus protocols to cells within the wells of the microtiter plate.
# 24 hours before the assay on E-VIPR, HEK cells expressing human Nav1.8 were seeded in 384-well poly-lysine coated plates at 15,000-20,000 cells per well. HEK cells were grown in media (exact composition is specific to each cell type and NaV subtype) supplemented with 10% FBS (Fetal Bovine Serum, qualified; GibcoBRL #16140-071) and 1% Pen-Strep (Penicillin-Streptomycin; GibcoBRL #15140-122). Cells were grown in vented cap flasks, in 90% humidity and 5% CO2.
# • 100 mg/mL Pluronic F-127 (Sigma #P2443), in dry DMSO • Compound Plates: 384-well round bottom plate, e.g. Corning 384-well Polypropylene Round Bottom #3656 • Cell Plates: 384-well tissue culture treated plate, e.g. Greiner #781091-1B • 10 mM DiSBAC6(3) (Aurora #00-100-010) in dry DMSO • 10 mM CC2-DMPE (Aurora #00-100-008) in dry DMSO • 200 mM ABSC1 in H20
# Bath1 buffer: Glucose 10 mM (1.8 g/L), Magnesium Chloride (Anhydrous), 1 mM (0.095 g/L), Calcium Chloride, 2 mM (0.222 g/L), HEPES 10 mM (2.38 g/L), Potassium Chloride, 4.5 mM (0.335 g/L), Sodium Chloride 160 mM (9.35 g/L).
# Hexyl Dye Solution: Bath1 Buffer+0.5% β-cyclodextrin (make this prior to use, Sigma #C4767), 8 μM CC2-DMPE+2.5 μM DiSBAC6(3). To make the solution Added volume of 10% Pluronic F127 stock equal to volumes of CC2-DMPE+DiSBAC6(3). The order of preparation was first mix Pluronic and CC2-DMPE, then added DiSBAC6(3) while vortexing, then added Bath1+β-Cyclodextrin.
# 1) Pre-spotted compounds (in neat DMSO) into compound plates. Vehicle control (neat DMSO), the positive control (20 mM DMSO stock tetracaine, 125 μM final in assay) and test compounds were added to each well at 160× desired final concentration in neat DMSO. Final compound plate volume was 80 μL (80-fold intermediate dilution from 1 μL DMSO spot; 160-fold final dilution after transfer to cell plate). Final DMSO concentration for all wells in assay was 0.625%.
# 2) Prepared Hexyl Dye Solution.
# 3) Prepared cell plates. On the day of the assay, medium was aspirated and cells were washed three times with 100 μL of Bath1 Solution, maintaining 25 μL residual volume in each well.
# 4) Dispensed 25 μL per well of Hexyl Dye Solution into cell plates. Incubated for 20-35 minutes at room temp or ambient conditions.
# 5) Dispensed 80 μL per well of Bath1 into compound plates. Acid Yellow-17 (1 mM) was added and Potassium Chloride was altered from 4.5 to 20 mM depending on the NaV subtype and assay sensitivity.
# 6) Washed cell plates three times with 100 μL per well of Bath1, leaving 25 μL of residual volume. Then transferred 25 uL per well from Compound Plates to Cell Plates. Incubated for 20-35 minutes at room temp/ambient condition.
# 7) Read Plate on E-VIPR. Used the current-controlled amplifier to deliver stimulation wave pulses for 10 seconds and a scan rate of 200 Hz. A pre-stimulus recording was performed for 0.5 seconds to obtain the un-stimulated intensities baseline. The stimulatory waveform was followed by 0.5 seconds of post-stimulation recording to examine the relaxation to the resting state.
# Data was analyzed and reported as normalized ratios of emission intensities measured in the 460 nm and 580 nm channels. […]
# [1] = Human liver microsome assay; format: in vitro ADME; details: 1 uM substrate, 0.5 mg/mL liver microsome, 2 mM NADPH, 37° C., referenced against time zero control
# Experimental: Human Liver Microsome Assay Protocol
# Liver microsomal stability data were generated as follows. Substrates were incubated at 37° C. and shaken for 30 minutes in a phosphate buffered solution with human liver microsomes and the cofactor NADPH. A time zero control was similarly prepared, however with NADPH excluded. The final incubation concentrations were 1 uM substrate (0.2% DMSO), 0.5 mg/mL liver microsome, 2 mM NADPH, and 0.1 M phosphate. Reactions were quenched and proteins precipitated with the addition of 2 volume equivalents of ice cold acetonitrile containing an internal standard. Following a centrifugation step, aliquots from the quenched incubations were further diluted with 4 volume equivalents of a 50% aqueous methanol solution and then subjected to LC/MS/MS analysis for quantitation of parent substrate. Microsome stability values were calculated as the percent of substrate remaining after 30 minutes referenced against the time zero control.
# Sequence of human Nav1.8 (Q9Y5Y9 whole entry): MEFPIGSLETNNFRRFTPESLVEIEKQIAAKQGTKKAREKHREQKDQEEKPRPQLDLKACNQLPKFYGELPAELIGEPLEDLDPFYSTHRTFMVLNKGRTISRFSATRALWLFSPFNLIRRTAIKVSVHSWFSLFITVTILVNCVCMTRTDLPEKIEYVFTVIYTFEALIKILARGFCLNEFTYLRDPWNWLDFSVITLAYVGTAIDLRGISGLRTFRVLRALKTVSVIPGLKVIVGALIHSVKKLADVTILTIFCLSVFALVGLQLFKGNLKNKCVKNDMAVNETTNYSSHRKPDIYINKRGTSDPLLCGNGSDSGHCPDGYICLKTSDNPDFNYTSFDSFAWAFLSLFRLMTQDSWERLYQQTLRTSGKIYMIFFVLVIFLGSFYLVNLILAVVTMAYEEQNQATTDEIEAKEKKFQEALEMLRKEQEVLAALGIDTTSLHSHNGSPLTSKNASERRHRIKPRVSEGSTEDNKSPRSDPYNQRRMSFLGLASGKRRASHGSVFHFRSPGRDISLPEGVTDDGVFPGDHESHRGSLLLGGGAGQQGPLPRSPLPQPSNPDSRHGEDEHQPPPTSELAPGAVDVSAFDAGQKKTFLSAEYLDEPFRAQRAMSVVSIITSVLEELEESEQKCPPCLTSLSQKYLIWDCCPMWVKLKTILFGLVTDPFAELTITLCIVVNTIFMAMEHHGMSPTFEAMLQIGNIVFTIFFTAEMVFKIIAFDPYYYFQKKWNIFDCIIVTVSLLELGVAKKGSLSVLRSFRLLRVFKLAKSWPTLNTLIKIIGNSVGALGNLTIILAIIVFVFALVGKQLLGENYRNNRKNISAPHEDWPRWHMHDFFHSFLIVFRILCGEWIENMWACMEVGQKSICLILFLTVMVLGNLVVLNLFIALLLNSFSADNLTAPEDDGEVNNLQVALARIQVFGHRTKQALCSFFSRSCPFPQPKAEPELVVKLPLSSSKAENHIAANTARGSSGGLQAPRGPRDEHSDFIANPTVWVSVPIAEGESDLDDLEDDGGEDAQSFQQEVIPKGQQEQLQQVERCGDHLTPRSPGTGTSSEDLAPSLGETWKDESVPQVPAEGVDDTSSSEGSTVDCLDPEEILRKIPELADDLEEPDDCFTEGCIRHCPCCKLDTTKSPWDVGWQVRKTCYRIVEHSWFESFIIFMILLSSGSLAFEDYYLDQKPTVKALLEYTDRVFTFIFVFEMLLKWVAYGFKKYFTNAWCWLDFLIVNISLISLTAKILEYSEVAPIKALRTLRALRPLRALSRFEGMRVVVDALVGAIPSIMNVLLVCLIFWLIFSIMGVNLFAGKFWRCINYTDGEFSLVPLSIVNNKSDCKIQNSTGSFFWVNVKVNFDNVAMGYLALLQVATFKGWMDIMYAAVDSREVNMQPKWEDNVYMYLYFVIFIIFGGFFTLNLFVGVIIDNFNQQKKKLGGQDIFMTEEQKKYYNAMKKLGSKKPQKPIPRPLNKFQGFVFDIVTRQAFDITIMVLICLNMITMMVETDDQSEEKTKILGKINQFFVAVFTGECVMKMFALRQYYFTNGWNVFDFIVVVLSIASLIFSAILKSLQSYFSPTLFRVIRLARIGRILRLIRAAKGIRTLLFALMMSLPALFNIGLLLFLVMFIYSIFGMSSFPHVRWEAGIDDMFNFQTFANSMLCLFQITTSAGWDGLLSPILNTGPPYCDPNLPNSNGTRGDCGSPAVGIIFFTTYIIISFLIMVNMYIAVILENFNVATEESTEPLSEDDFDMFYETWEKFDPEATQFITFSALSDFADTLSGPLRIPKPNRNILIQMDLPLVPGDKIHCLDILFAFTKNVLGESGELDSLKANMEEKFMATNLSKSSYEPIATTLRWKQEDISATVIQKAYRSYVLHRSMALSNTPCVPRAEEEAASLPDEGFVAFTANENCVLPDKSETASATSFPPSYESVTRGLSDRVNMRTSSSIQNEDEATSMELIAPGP
IC50 (human Nav1.8) [nM],HLM: percent unchanged after 30 min [1] [%],SMILES
21,72,"CCOc1ccc(Oc2cc(C(F)(F)F)ccc2C(=O)Nc2cccc(S(N)(=O)=O)c2)cc1 [Compound 45, 2-(4-ethoxyphenoxy)-N-(3-sulfamoylphenyl)-4-(trifluoromethyl)benzamide]"
14,67,"CCCOc1ccccc1Oc1cc(C(F)(F)F)ccc1C(=O)Nc1cccc(S(N)(=O)=O)c1 [Compound 46, 2-(2-propoxyphenoxy)-N-(3-sulfamoylphenyl)-4-(trifluoromethyl)benzamide]"
14,100,"Cc1ccccc1Oc1cc(C(F)(F)F)ccc1C(=O)Nc1cccc(S(N)(=O)=O)c1 [Compound 47, N-(3-sulfamoylphenyl)-2-(o-tolyloxy)-4-(trifluoromethyl)benzamide]"
10,68,"COc1ccc(Oc2cc(C(F)(F)F)ccc2C(=O)Nc2cccc(S(N)(=O)=O)c2)c(Cl)c1 [Compound 48, 2-(2-chloro-4-methoxyphenoxy)-N-(3-sulfamoylphenyl)-4-(trifluoromethyl)benzamide]"
12,57,"COc1ccc(Oc2cc(C(F)(F)F)ccc2C(=O)Nc2cccc(S(N)(=O)=O)c2)c(C)c1 [Compound 49, 2-(4-methoxy-2-methylphenoxy)-N-(3-sulfamoylphenyl)-4-(trifluoromethyl)benzamide]"
8,72,"COc1ccc(Oc2cc(C(F)(F)F)ccc2C(=O)Nc2cccc(S(N)(=O)=O)c2)c(OC)c1 [Compound 50, 2-(2,4-dimethoxyphenoxy)-N-(3-sulfamoylphenyl)-4-(trifluoromethyl)benzamide]"
14,89,"NS(=O)(=O)c1cccc(NC(=O)c2ccc(C(F)(F)F)cc2Oc2ccc(OC(F)(F)F)cc2)c1 [Compound 51, N-(3-sulfamoylphenyl)-2-(4-(trifluoromethoxy)phenoxy)-4-(trifluoromethyl)benzamide]"
11,81,"COc1c(F)cccc1Oc1cc(C(F)(F)F)ccc1C(=O)Nc1cccc(S(N)(=O)=O)c1 [Compound 52, 2-(3-fluoro-2-methoxyphenoxy)-N-(3-sulfamoylphenyl)-4-(trifluoromethyl)benzamide]"
26,71,"CC(C)Oc1ccc(Oc2cc(C(F)(F)F)ccc2C(=O)Nc2cccc(S(N)(=O)=O)c2)cc1 [Compound 53, 2-(4-isopropoxyphenoxy)-N-(3-sulfamoylphenyl)-4-(trifluoromethyl)benzamide]"
5,96,"COc1cc(F)ccc1Oc1cc(OC(F)(F)F)ccc1C(=O)Nc1cccc(S(N)(=O)=O)c1 [Compound 54, 2-(4-fluoro-2-methoxyphenoxy)-N-(3-sulfamoylphenyl)-4-(trifluoromethoxy)benzamide]"
9,95,"NS(=O)(=O)c1cccc(NC(=O)c2ccc(OC(F)(F)F)cc2Oc2ccc(F)cc2)c1 [Compound 55, 2-(4-fluorophenoxy)-N-(3-sulfamoylphenyl)-4-(trifluoromethoxy)benzamide]"
4,102,"NS(=O)(=O)c1cccc(NC(=O)c2ccc(OC(F)(F)F)cc2Oc2ccc(F)cc2Cl)c1 [Compound 56, 2-(2-chloro-4-fluorophenoxy)-N-(3-sulfamoylphenyl)-4-(trifluoromethoxy)benzamide]"
27,78,"COc1ccccc1Oc1cccc(C(F)(F)F)c1C(=O)Nc1cccc(S(N)(=O)=O)c1 [Compound 57, 2-(2-methoxyphenoxy)-N-(3-sulfamoylphenyl)-6-(trifluoromethyl)benzamide]"
6,107,"Cc1cc(Cl)ccc1Oc1cccc(C(F)(F)F)c1C(=O)Nc1cccc(S(N)(=O)=O)c1 [Compound 58, 2-(4-chloro-2-methylphenoxy)-N-(3-sulfamoylphenyl)-6-(trifluoromethyl)benzamide]"
14,66,"Cc1c(F)cccc1Oc1cccc(C(F)(F)F)c1C(=O)Nc1cccc(S(N)(=O)=O)c1 [Compound 59, 2-(3-fluoro-2-methylphenoxy)-N-(3-sulfamoylphenyl)-6-(trifluoromethyl)benzamide]"
9,92,"NS(=O)(=O)c1cccc(NC(=O)c2c(Oc3ccc(OC(F)(F)F)cc3)cccc2C(F)(F)F)c1 [Compound 60, N-(3-sulfamoylphenyl)-2-(4-(trifluoromethoxy)phenoxy)-6-(trifluoromethyl)benzamide]"
28,68,"COc1ccc(Oc2cccc(C(F)(F)F)c2C(=O)Nc2cccc(S(N)(=O)=O)c2)cc1F [Compound 61, 2-(3-fluoro-4-methoxyphenoxy)-N-(3-sulfamoylphenyl)-6-(trifluoromethyl)benzamide]"
16,81,"COc1ccc(Oc2cc(OC(F)(F)F)ccc2C(=O)Nc2cccc(S(N)(=O)=O)c2)c(Cl)c1 [Compound 62, 2-(2-chloro-4-methoxyphenoxy)-N-(3-sulfamoylphenyl)-4-(trifluoromethoxy)benzamide]"
27,92,"NS(=O)(=O)c1cccc(NC(=O)c2ccc(OC(F)(F)F)cc2Oc2ccccc2Cl)c1 [Compound 63, 2-(2-chlorophenoxy)-N-(3-sulfamoylphenyl)-4-(trifluoromethoxy)benzamide]"
22,96,"NS(=O)(=O)c1cccc(NC(=O)c2ccc(OC(F)(F)F)cc2Oc2ccccc2OC(F)F)c1 [Compound 64, 2-(2-(difluoromethoxy)phenoxy)-N-(3-sulfamoylphenyl)-4-(trifluoromethoxy)benzamide]"
22,101,"COc1cc(Cl)ccc1Oc1cc(OC(F)(F)F)ccc1C(=O)Nc1cccc(S(N)(=O)=O)c1 [Compound 65, 2-(4-chloro-2-methoxyphenoxy)-N-(3-sulfamoylphenyl)-4-(trifluoromethoxy)benzamide]"
7,89,"COc1c(Cl)cccc1Oc1cc(OC(F)(F)F)ccc1C(=O)Nc1cccc(S(N)(=O)=O)c1 [Compound 66, 2-(3-chloro-2-methoxyphenoxy)-N-(3-sulfamoylphenyl)-4-(trifluoromethoxy)benzamide]"
26,91,"COc1ccc(Oc2cc(C(F)(F)F)ccc2C(=O)Nc2cccc(S(N)(=O)=O)c2)cc1Cl [Compound 67, 2-(3-chloro-4-methoxyphenoxy)-N-(3-sulfamoylphenyl)-4-(trifluoromethyl)benzamide]"
